# From ChEMBL document CHEMBL1909046, “DrugMatrix in vitro pharmacology data”
# Tests used:
# [1] = DRUGMATRIX: Potassium Channel [KATP] radioligand binding (ligand: [3H] Glyburide); assay type: cell membranes, Membrane; details: hit-t15; Not Active = under 50% inhibition at 10 µM
# Cytochrome P450 2E1 = Cytochrome P450 2E1 (Homo sapiens, UniProt P05181); details: bti-tn-5b1-4; also: in other assays of this panel Not Active means under 50% inhibition at 10 µM
# Adenosine receptor A2a = Adenosine receptor A2a (Homo sapiens, UniProt P29274); assay: DRUGMATRIX: Adenosine A2A radioligand binding (ligand: […]); assay type: cell membranes, HEK293, Membrane; details: hek293; Not Active = under 50% inhibition at 10 µM
# [2] = molecular target: Prostaglandin G/H synthase 1 (Homo sapiens, UniProt P23219); assay: biochemical; assay type: tissue-based, Platelet; details: platelet;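 also: inhibition of COX-1 enzyme activity, with arachidonic acid supplied as substrate; in other assays of this panel Not Active means under 50% inhibition at 10 µM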
# Substance-K receptor = molecular target: T1, Substance-K receptor (Homo sapiens, UniProt P21452); assay type: cell membranes, CHO, Membrane; details: cho; also: in other assays of this panel Not Active means under 50% inhibition at 10 µM
# T1 sequence (P21452 whole entry): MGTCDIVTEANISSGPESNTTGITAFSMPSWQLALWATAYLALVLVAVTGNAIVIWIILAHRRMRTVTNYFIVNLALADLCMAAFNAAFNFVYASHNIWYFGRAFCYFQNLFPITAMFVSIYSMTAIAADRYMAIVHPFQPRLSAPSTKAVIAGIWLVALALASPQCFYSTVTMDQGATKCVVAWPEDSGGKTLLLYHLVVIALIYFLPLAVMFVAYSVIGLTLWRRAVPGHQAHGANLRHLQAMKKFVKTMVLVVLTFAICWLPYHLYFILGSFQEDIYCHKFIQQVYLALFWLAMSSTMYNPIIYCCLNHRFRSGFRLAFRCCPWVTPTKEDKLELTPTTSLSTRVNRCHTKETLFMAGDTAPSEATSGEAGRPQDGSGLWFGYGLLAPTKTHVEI
# [3] = DRUGMATRIX: Serotonin (5-Hydroxytryptamine) 5-HT3 radioligand binding (ligand: [3H] GR-65630); assay type: cell membranes, Membrane; details: hek293; Not Active = under 50% inhibition at 10 µM
# Sequence of Adenosine receptor A2a (P29274 whole entry): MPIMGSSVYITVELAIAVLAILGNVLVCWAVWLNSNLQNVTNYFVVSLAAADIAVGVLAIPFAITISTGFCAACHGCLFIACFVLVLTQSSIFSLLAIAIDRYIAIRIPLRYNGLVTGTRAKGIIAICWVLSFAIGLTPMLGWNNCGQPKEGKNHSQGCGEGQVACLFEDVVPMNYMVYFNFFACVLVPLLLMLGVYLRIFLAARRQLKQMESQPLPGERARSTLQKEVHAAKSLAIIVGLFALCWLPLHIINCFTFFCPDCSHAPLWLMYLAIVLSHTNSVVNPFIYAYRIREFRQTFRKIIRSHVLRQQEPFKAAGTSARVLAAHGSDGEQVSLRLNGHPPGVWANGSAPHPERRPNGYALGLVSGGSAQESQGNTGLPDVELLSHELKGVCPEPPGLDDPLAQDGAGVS
# Sequence of Prostaglandin G/H synthase 1 (P23219 whole entry): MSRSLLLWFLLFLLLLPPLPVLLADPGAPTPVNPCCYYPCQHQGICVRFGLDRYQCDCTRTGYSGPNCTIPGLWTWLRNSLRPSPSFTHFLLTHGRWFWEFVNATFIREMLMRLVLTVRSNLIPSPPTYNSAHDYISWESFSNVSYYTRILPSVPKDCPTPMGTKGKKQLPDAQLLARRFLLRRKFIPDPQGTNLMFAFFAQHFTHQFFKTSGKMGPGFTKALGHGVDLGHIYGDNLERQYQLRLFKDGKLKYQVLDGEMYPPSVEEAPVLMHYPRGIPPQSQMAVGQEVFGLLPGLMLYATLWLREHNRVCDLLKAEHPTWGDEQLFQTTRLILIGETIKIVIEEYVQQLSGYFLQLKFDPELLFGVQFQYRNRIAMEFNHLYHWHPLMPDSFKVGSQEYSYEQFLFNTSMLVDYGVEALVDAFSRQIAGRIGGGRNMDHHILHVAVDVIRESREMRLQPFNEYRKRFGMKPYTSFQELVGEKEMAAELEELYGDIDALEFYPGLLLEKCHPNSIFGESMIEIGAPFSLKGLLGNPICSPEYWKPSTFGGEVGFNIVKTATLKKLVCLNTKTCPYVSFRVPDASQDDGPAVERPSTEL
# Sequence of Cytochrome P450 2E1 (P05181 whole entry): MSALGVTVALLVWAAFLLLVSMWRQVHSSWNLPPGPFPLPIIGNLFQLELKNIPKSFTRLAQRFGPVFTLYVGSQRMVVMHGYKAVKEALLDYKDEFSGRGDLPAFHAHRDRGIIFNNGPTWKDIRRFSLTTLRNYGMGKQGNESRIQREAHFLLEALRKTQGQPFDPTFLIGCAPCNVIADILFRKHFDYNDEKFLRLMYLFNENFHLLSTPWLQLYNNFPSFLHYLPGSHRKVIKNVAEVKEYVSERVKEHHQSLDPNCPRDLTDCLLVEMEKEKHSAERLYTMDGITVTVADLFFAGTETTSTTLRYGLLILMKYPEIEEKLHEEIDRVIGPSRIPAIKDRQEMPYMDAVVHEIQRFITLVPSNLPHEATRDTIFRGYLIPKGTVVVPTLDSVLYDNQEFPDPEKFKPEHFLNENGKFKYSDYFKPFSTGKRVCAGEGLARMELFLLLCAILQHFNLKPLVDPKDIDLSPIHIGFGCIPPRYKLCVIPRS
compound,measurement,setting,value
C[C@]12C=CC(=O)C=C1CC[C@@H]1[C@@H]2[C@@H](O)C[C@@]2(C)[C@H]1CC[C@]2(O)C(=O)CO [PREDNISOLONE],IC50,[1],Not Active
same,Ki,[1],Not Active
same,IC50,Cytochrome P450 2E1,Not Active
same,Ki,Cytochrome P450 2E1,Not Active
same,IC50,Adenosine receptor A2a,Not Active
same,IC50,[2],Not Active
same,IC50,Substance-K receptor,Not Active
same,IC50,[3],Not Active
same,Ki,[3],Not Active
CC(=O)[C@H]1[C@H](C#N)C[C@H]2[C@@H]3CC=C4C[C@@H](O)CC[C@]4(C)[C@H]3CC[C@@]21C [PREGNENOLONE CARBONITRILE],IC50,[1],Not Active
same,Ki,[1],Not Active
same,IC50,Cytochrome P450 2E1,Not Active
same,Ki,Cytochrome P450 2E1,Not Active
same,IC50,Adenosine receptor A2a,Not Active
same,IC50,[2],Not Active
same,IC50,Substance-K receptor,Not Active
same,IC50,[3],Not Active
same,Ki,[3],Not Active
CCCN(CCC)S(=O)(=O)c1ccc(C(=O)O)cc1 [PROBENECID],IC50,[1],Not Active
same,Ki,[1],Not Active
same,IC50,Cytochrome P450 2E1,Not Active
same,Ki,Cytochrome P450 2E1,Not Active
same,IC50,Adenosine receptor A2a,Not Active
same,IC50,[2],Not Active
same,IC50,Substance-K receptor,Not Active
same,IC50,[3],Not Active
same,Ki,[3],Not Active
CCCNCC(O)COc1ccccc1C(=O)CCc1ccccc1 (stereo not drawn) [PROPAFENONE],IC50,[1],Not Active
same,Ki,[1],Not Active
same,IC50,Cytochrome P450 2E1,Not Active
same,Ki,Cytochrome P450 2E1,Not Active
same,IC50,Adenosine receptor A2a,Not Active
same,IC50,[2],Not Active
same,IC50,Substance-K receptor,Not Active
same,IC50,[3],Not Active
same,Ki,[3],Not Active
CCCOc1ccc(C(=O)OCCN(CC)CC)cc1N [PROPARACAINE],IC50,[1],Not Active
same,Ki,[1],Not Active
same,IC50,Cytochrome P450 2E1,Not Active
same,Ki,Cytochrome P450 2E1,Not Active
same,IC50,Adenosine receptor A2a,Not Active
same,IC50,[2],Not Active
same,IC50,Substance-K receptor,Not Active
same,IC50,[3],Not Active
same,Ki,[3],Not Active
C[C@@H]1O[C@@H](O[C@@H]2C=C3CC[C@@H]4[C@H](CC[C@]5(C)[C@@H](c6ccc(=O)oc6)CC[C@]45O)[C@@]3(C)CC2)[C@H](O)[C@H](O)[C@H]1O [PROSCILLARIDIN],IC50,[1],Not Active
same,Ki,[1],Not Active
same,IC50,Cytochrome P450 2E1,Not Active
same,Ki,Cytochrome P450 2E1,Not Active
same,IC50,Adenosine receptor A2a,Not Active
same,IC50,[2],Not Active
same,IC50,Substance-K receptor,Not Active
same,IC50,[3],Not Active
same,Ki,[3],Not Active
Oc1cccc(O)c1O [PYROGALLOL],IC50,[1],Not Active
same,Ki,[1],Not Active
same,IC50,Cytochrome P450 2E1,Not Active
same,Ki,Cytochrome P450 2E1,Not Active
same,IC50,Adenosine receptor A2a,Not Active
same,IC50,[2],Not Active
same,IC50,Substance-K receptor,Not Active
same,IC50,[3],Not Active
same,Ki,[3],Not Active
AURANOFIN,IC50,[1],Not Active
same,Ki,[1],Not Active
same,IC50,Cytochrome P450 2E1,Not Active
same,Ki,Cytochrome P450 2E1,Not Active
same,IC50,Adenosine receptor A2a,Not Active
same,Ki,Adenosine receptor A2a,Not Active
same,IC50,[2],Not Active
same,Ki,[2],Not Active
same,IC50,Substance-K receptor,Not Active
same,Ki,Substance-K receptor,Not Active
same,IC50,[3],Not Active
same,Ki,[3],Not Active
GADOPENTETATE DIMEGLUMINE,IC50,[1],Not Active
same,Ki,[1],Not Active
same,IC50,Cytochrome P450 2E1,Not Active
same,Ki,Cytochrome P450 2E1,Not Active
same,IC50,Adenosine receptor A2a,Not Active
same,Ki,Adenosine receptor A2a,Not Active
same,IC50,[2],Not Active
same,Ki,[2],Not Active
same,IC50,Substance-K receptor,Not Active
same,Ki,Substance-K receptor,Not Active
same,IC50,[3],Not Active
same,Ki,[3],Not Active
GENTAMICIN,IC50,[1],Not Active
same,Ki,[1],Not Active
same,IC50,Cytochrome P450 2E1,Not Active
same,Ki,Cytochrome P450 2E1,Not Active
same,IC50,Adenosine receptor A2a,Not Active
same,Ki,Adenosine receptor A2a,Not Active
same,IC50,[2],Not Active
same,Ki,[2],Not Active
same,IC50,Substance-K receptor,Not Active
same,Ki,Substance-K receptor,Not Active
same,IC50,[3],Not Active
same,Ki,[3],Not Active
GRAMICIDIN,IC50,[1],Not Active
same,Ki,[1],Not Active
same,IC50,Cytochrome P450 2E1,Not Active
same,Ki,Cytochrome P450 2E1,Not Active
same,IC50,Adenosine receptor A2a,Not Active
same,Ki,Adenosine receptor A2a,Not Active
same,IC50,[2],Not Active
same,Ki,[2],Not Active
same,IC50,Substance-K receptor; read-out: IC50,4.56 µM
same,Ki,Substance-K receptor; read-out: Ki,1.52 µM
same,IC50,[3],Not Active
same,Ki,[3],Not Active
NYSTATIN,IC50,[1],Not Active
same,Ki,[1],Not Active
same,IC50,Cytochrome P450 2E1,Not Active
same,Ki,Cytochrome P450 2E1,Not Active
same,IC50,Adenosine receptor A2a,Not Active
same,Ki,Adenosine receptor A2a,Not Active
same,IC50,[2],Not Active
same,Ki,[2],Not Active
same,IC50,Substance-K receptor,Not Active
same,Ki,Substance-K receptor,Not Active
same,IC50,[3],Not Active
same,Ki,[3],Not Active
